The record followed here is US20150045291A1, “LIPOPEPTIDE CONJUGATES COMPRISING SPHINGOLIPID AND HIV GP41 DERIVED PEPTIDES” (priority 2012, published 2015).

Like-named read-outs stand apart in the source and are kept apart here. Starred links: 1 amine or outer side, 2 acyl side, 3 side chain; linkers in the order of their positions; H or OH if unused. Residues, ends and D or L forms follow the SMILES beside them. *: point of attachment. X1 = Cc1c(C)c2c(c(C)c1OC(=O)CCC(=O)*)CCC(C)(CCCC(C)CCCC(C)CCCC(C)C)O2; Sphinganine = CCCCCCCCCCCCCCC[C@@H](O)[C@H](CO)N*; Palmitoyl = CCCCCCCCCCCCCCCC(=O)*; CO = O=C([*:1])[*:2] Some results are limits rather than exact numbers.

Data set [1] deals with fully infectious HIV-1 HXB2.
Data set [2] can be described thus: Peptide binding to LUV, PC:SM:Chol (1:1:1). The settings on record: Ka, NBD-labeled compound titrated with LUV; mean±s.d. of the fitting curve, n=3. The protocol:
(§1) Lipid vesicle preparation. Large unilamellar vesicles (LUV) were prepared from egg phosphatidylcholine (PC), cholesterol (Chol) and egg yolk sphingomyelin (SM) (Sigma Chemical Co., Israel). A dried film of lipids containing a total of 2 mg of PC:SM:Chol (1:1:1) or 2 mg of PC:Chol (9:1) was suspended in PBS and vortexed for 1.5 min. The lipid suspension underwent five cycles of freezing-thawing and then extrusion through polycarbonate membranes with 1 μm and 0.1 μm diameter pores for 25 times.
(§2) Peptide binding to LUV. The degree of peptide association with lipid vesicles was measured by adding lipid vesicles to 0.1 μM fluorescently NBD-labeled peptides at room temperature. The fluorescence intensity was measured as a function of the lipid:peptide molar ratio, with excitation set at 467 nm (10-nm slit) and emission set at 530 nm (10-nm slit). To determine the extent of the lipid's contribution to any given signal, the readings after the addition of lipid vesicles were subtracted as background from the recorded fluorescence intensity. The affinity constants were then determined by steady state affinity model using non-linear least-squares (NLLSQ). The NLLSQ fitting was done using the following equation: […]
(§3) where X is the lipid concentration, Y(x) is the fluorescence emission, Fmax is the maximal difference in the emission of NBD-labeled peptide before and after the addition of lipids (it represents the maximum peptide bound to lipid), and Ka is the affinity constant.
(§4) Compound association with lipid vesicles was estimated by NBD-labeled compound titration with large unilamellar vesicles. The mole ratio between phosphatidylcholine (PC), sphingomyelin (SM), and cholesterol (Chol) is presented for each vesicle. The membrane-binding constants (Ka) were calculated from equation 2 in the Methods. Results represent the mean±s.d. of the fitting curve, n=3.

Data set [3] in a line: Secondary structure determination by circular dichroism. It is filed as physicochemical. The settings on record: percentage of α-helical structure, CD, 10 μM peptide in HEPES buffer 5 mM pH 7.4, 25° C. Here is the method: Secondary structure determination. Circular Dichroism (CD) measurements were performed by using an AppliedPhoto physics spectropolarimeter. The spectra were scanned using a thermostatic quartz cuvette with a path length of 1 mm. Wavelength scans were performed at 25° C.; the average recording time was 15 sec, in 1-nm steps, in the wavelength range of 190-260 nm. Each peptide concentration was 10 μM in HEPES buffer (5 mM, pH 7.4).
Helicity (%): The percentage of α-helical structure was determined as described in the section of Materials and Methods.
On the technique in general: Circular dichroism is widely used to follow secondary structure.

Data set [4] is described as follows: Hydrophobicity by RP-HPLC. It is filed as physicochemical. To be noted: RP-HPLC retention time, analytical C2 column, CH3CN/H2O gradient. Here is the method: Peptide synthesis, lipid moiety conjugation, and fluorescent labeling. Peptides were synthesized on Rink Amide MBHA resin by using the F-moc strategy. Several peptides contain a lysine residue at their C-terminus with an MTT side-chain protecting group (Nova-biochem AG, Switzerland) that requires a special deprotection step under mild acidic conditions (2×1 min of 5% trifluoroacetic acid (TFA) in dichloromethane (DCM) and 30 min of 1% TFA in DCM). This enables the conjugation of a lipid moiety or a fluorescent probe to the C-terminus. The chemical synthesis schemes of the following compounds 1-5 are described in FIG. 6. Conjugation of hexadecanoic (palmitic) acid (C16) or α-Tocopherol succinate (Sigma Chemical Co., Israel) to the N-terminus of selected peptides (compound 2 and compound 4, respectively) was performed using standard F-moc chemistry. Conjugation of cholesterol to the N-terminus of a peptide (compound 3) was performed by adding 10 equivalents of cholesteryl chloroformate (Alfa Aesar, USA) dissolved in DCM, together with 3 equivalents of triethyl amine to the peptides' resin. Conjugation of D-erythro-Dihydrosphingosine (D-erythro sphinganine), (Matreya, LCC, USA) to the N- or C-terminus of a peptide (compound 1) was performed as followed: first, 10 equivalents of N,N′-Disuccinimidyl carbonate (DSC) (Chem-Impex Internatinal, USA) and 20 equivalents of N,N-Diisopropylethylamine (DIEA) were added to the resin for 2 hours in dimethylformamide (DMF). Then, 2 equivalents of sphinganine and 2 equivalents of DIEA were added for overnight incubation in DMF anhydrous. The conjugation of D-erythro-Sphingosine (Matreya, LCC, USA) to the peptides (compound 5) was performed as described for compound 1. Addition of NBD-F, fluoride (4-fluoro-7-nitrobenzofurazan) (NBD) fluorescent probe (Biotium, USA) to the N- or C-terminus of selected peptides was performed in DMF for 1 hour. All peptides were cleaved from the resin by a TFA:DDW:TES (93.1:4.9:2 (v/v)) mixture, and purified by reverse-phase high-performance liquid chromatography (RP-HPLC) to >95% homogeneity. The molecular weight of the peptides was confirmed by platform LCA electrospray mass spectrometry. For hydrophobicity tests the peptides were eluted with a flow rate of 0.6 ml/min using a two-step linear gradient from CH3CN/H2O 20:80 v/v to CH3CN/H2O 95:5 v/v in 30 min and from CH3CN/H2O 95:5 v/v to CH3CN/H2O 95:5 in 10 min v/v on an analytical C2 column (7 μm particle size, pore size 100 Å) from Nucleosil.
Hydrophobicity (min): Hydrophobicity was analyzed by RP-HPLC. The retention time of each compound is presented.

Data set [5] can be described thus: Peptide binding to LUV, PC:Chol (9:1). The settings on record: Ka, NBD-labeled compound titrated with LUV; mean±s.d. of the fitting curve, n=3. Here is the method:
as §1, §2, §3, §4

The test system of data set [6] is Fuzeon-resistant LAI strain with V38E mutation in gp41. Kind of data set: Fuzeon-resistant virus infection. To be noted: mutation in the GIV sequence (V38E).
The subject of data set [7] is pseudotyped virus with AD8 ENV (CCR5 tropic).
Data set [8] has as its system pseudotyped virus with LAI ENV (CXCR4 tropic).
The mark [9] stands for this setting: fully infectious HIV-1 system (Table 2).
Where [10] appears, read: read-out: Virus-cell fusion IC50, TZM-bl cells infected with fully contagious HIV, mean±s.d., n=3.

As for `CCCCCCCCCCCCCCCC(=O)N[C@@H](CC(C)C)C(=O)N[C@@H](CC(C)C)C(=O)N[C@@H](CCC(N)=O)C(=O)N[C@@H](CC(C)C)C(=O)N[C@H](C(=O)N[C@H](C(=O)N[C@@H](Cc1c[nH]c2ccccc12)C(=O)NCC(=O)N[C@H](C(=O)N[C@@H](CCCCN)C(=O)N[C@@H](CCC(N)=O)C(=O)N[C@@H](CC(C)C)C(=O)N[C@@H](CCC(N)=O)C(=O)N[C@@H](C)C(=O)N[C@@H](CCCNC(=N)N)C(=O)N[C@H](C(=O)N[C@@H](CC(C)C)C(N)=O)[C@@H](C)CC)[C@@H](C)CC)C(C)C)[C@@H](C)O` [Palmitic acid-N17] (Palmitoyl-LLQLTVWGIKQLQARIL-NH2), the IC50 in data set [1] (setting [9]) and in data set [1] (setting [10]) was greater than 4000 nM throughout. For the same compound, the “Membrane-binding constant (M^−1), PC:SM:Chol (1:1:1)” value (“Membrane-binding constant … (1:1:1)” below) in data set [2] came out at 150000 ± 70000 M⁻¹. In addition, the “Helicity (%)” value in data set [3] is less than 10%. Further, in data set [4], the “Hydrophobicity” value was 26.7 min. For the same compound, the “Membrane-binding constant (M^−1), PC:Chol (9:1)” value in data set [5] worked out at 170000 ± 30000 M⁻¹.

With `CCCCCCCCCCCCCCC[C@@H](O)[C@H](CO)NC(=O)N[C@@H](CC(C)C)C(=O)N[C@@H](CC(C)C)C(=O)N[C@@H](CCC(N)=O)C(=O)N[C@@H](CC(C)C)C(=O)N[C@H](C(=O)N[C@H](C(=O)N[C@@H](Cc1c[nH]c2ccccc12)C(=O)NCC(=O)N[C@H](C(=O)N[C@@H](CCCCN)C(=O)N[C@@H](CCC(N)=O)C(=O)N[C@@H](CC(C)C)C(=O)N[C@@H](CCC(N)=O)C(=O)N[C@@H](C)C(=O)N[C@@H](CCCNC(=N)N)C(=O)N[C@H](C(=O)N[C@@H](CC(C)C)C(N)=O)[C@@H](C)CC)[C@@H](C)CC)C(C)C)[C@@H](C)O` [Sphinganine-N17, Sphinganine-LLQLTVWGIKQLQARIL] ({Sphinganine-CO}-LLQLTVWGIKQLQARIL-NH2), the “Effect on viral infectivity / fusion (in words)” value in data set [1] (at / up to 1 μM) is recorded as “completely blocks fusion”. In addition, the IC50 in data set [1] (setting [9]) was found to be 121 ± 36 nM; in data set [1] (read-out: IC50 (inhibitory concentration at 50% infectivity), TZM-bl cells, fully contagious HXB2 HIV-1), 121 nM; in data set [7], 403 nM; in data set [8], 312 nM. In addition, the “Viral infectivity curves, compound added to target cells before the virus vs immediately after” value in data set [1] (time of addition) was “no difference”. The “Membrane-binding constant … (1:1:1)” value in data set [2] is 84000 ± 14000 M⁻¹. The “Helicity (%)” value in data set [3] is given as less than 10%. Moreover, the “Antiviral activity against V38E mutant (in words)” value in data set [6] was “preserved its potent antiviral activity”. In data set [4], the “Hydrophobicity” value is 27.2 min. Moreover, in data set [5], the “Membrane-binding constant (M^−1), PC:Chol (9:1)” value came out at 470000 ± 100000 M⁻¹.

Take `CC[C@H](C)[C@H](NC(=O)CNC(=O)[C@H](Cc1c[nH]c2ccccc12)NC(=O)[C@@H](NC(=O)[C@@H](NC(=O)[C@H](CC(C)C)NC(=O)[C@H](CCC(N)=O)NC(=O)[C@H](CC(C)C)NC(=O)[C@H](CC(C)C)NC(=O)CCC(=O)Oc1c(C)c(C)c2c(c1C)CCC(C)(CCCC(C)CCCC(C)CCCC(C)C)O2)[C@@H](C)O)C(C)C)C(=O)N[C@@H](CCCCN)C(=O)N[C@@H](CCC(N)=O)C(=O)N[C@@H](CC(C)C)C(=O)N[C@@H](CCC(N)=O)C(=O)N[C@@H](C)C(=O)N[C@@H](CCCNC(=N)N)C(=O)N[C@H](C(=O)N[C@@H](CC(C)C)C(N)=O)[C@@H](C)CC` (stereo partly drawn) [Tocopherol-N17] (X1-LLQLTVWGIKQLQARIL-NH2): the IC50 in data set [1] (setting [9]) and in data set [1] (setting [10]) was greater than 4000 nM each time. Further, in data set [3], the “Helicity (%)” value is less than 10%. The “Hydrophobicity” value in data set [4] turned out to be 28.9 min.

With enfuvirtide, in data set [2], the “Membrane-binding constant … (1:1:1)” value amounted to 31000 ± 5000 M⁻¹. For the same compound, in data set [6], the “Antiviral activity against V38E mutant (in words)” value is on record as “considerably weakened the antiviral activity”. In data set [5], the “Membrane-binding constant (M^−1), PC:Chol (9:1)” value worked out at 64000 ± 14000 M⁻¹.
